Counter-ions that a name gives are not always drawn. Like-named read-outs stand apart in the source and are kept apart here.
Tests used:
[1] = biological target: T1, Human rt-PA (Activase) (Homo sapiens, UniProt P00750); experiment: biochemical; conditions: 30 minute incubation; 1.0 nM enzyme; read-out: IC50 rt-PA (Table 2)
T1 construct: purchased Genentech Inc
Method: The ability of compounds of the present invention to act as a selective inhibitor of thrombin catalytic activity was assessed by determining the concentration of compound which inhibited the activity of this enzyme by 50%, (IC50), and comparing this value to that determined for all or some of the following related serine proteases: recombinant tissue plasminogen activator (rt-PA), plasmin, activated protein C, chymotrypsin, factor Xa and trypsin.
(§1) The buffer used for all assays was HBSA (10 mM HEPES, pH 7.5, 150 mM sodium chloride, 0.1% bovine serum albumin).
The assay for IC50 determinations was conducted by combining in appropriate wells of a Corning microtiter plate, 50 microliters of HBSA, 50 microliters of the test compound at a specified concentration (covering a broad concentration range) diluted in HBSA (or HBSA alone for VO (uninhibited velocity) measurement), and 50 microliters of the enzyme diluted in HBSA. Following a 30 minute incubation at ambient temperature, 50 microliters of the substrate at the concentrations specified below were added to the wells, yielding a final total volume of 200 microliters. The initial velocity of chromogenic substrate hydrolysis was measured by the change in absorbance at 405 nm using a Thermo Max® Kinetic Microplate Reader over a 5 minute period in which less than 5% of the added substrate was utilized. The concentration of added inhibitor which caused a 50% decrease in the initial rate of hydrolysis was defined as the IC50 value.
Recombinant Tissue Plasminogen Activator (rt-PA) Assay
rt-PA catalytic activity was determined using the substrate, Pefachrome t-PA (CH3SO2-D-hexahydrotyrosine-glycyl-L-arginine-p-nitroaniline, obtained from Pentapharm Ltd.). The substrate was made up in deionized water followed by dilution in HBSA prior to the assay in which the final concentration was 500 micromolar (about 3-times Km). Human rt-PA (Activase®) was obtained from Genentech Inc. The enzyme was reconstituted in deionized water and diluted into HBSA prior to the assay in which the final concentration was 1.0 nM.

[2] = tested on: clot formation on silk thread in A-V shunt; experiment: Multiple extracorporeal (A-V) shunt model in rats utilizing oral dosing; format: in vivo; conditions: rat, read-out: ED50 value (dose that reduced the clot size by 50%)
Method: The compounds of Example 10 and 143 were evaluated in a multichamber A-V shunt model in rats. The A-V shunt model is one of the most common and generally used systems to evaluate antithrombotic compounds: Smith, J. R. and White, A. M. Br. J. Pharmacol., 77: 29-38 (1982). In this model a localized clot made up of primarily fibrin with some platelet and macrophage involvement (Shand, R. A. and Smith, J. R. and Wallis, R. B. Thromb. Res., 36: 223-232 (1984)), is formed on an artificial thrombogenic surface (typically a segment of silk or cotton thread) contained in a sialstic chamber which is part of an exteriorized shunt between the carotid artery and jugular vein. The procedure described in this Example is a modified A-V shunt model that allows for oral dosing of test agents and subsequent evaluation of efficacy over a two to three hour window in time.
Briefly, male Harlan Sprague Dawley rats (420-450 g) were acclimated at least 72 hours prior to use. The animals were fasted for 12 hours prior to surgery with free access to water. Unanesthetized animals were grouped into three or four dosage groups (six or seven animals per group) and administered test agents orally via gavage needle, at doses of 1.0, 3.0, 10 and 50 mg/kg for the compound of Example 10, and 3.0, 10 and 30 mg/kg for the Compound of Example 143. Immediately after oral dosing, animals were anesthetized with sodium pentobarbital (Nembutal) given intraperitoneally at a dose of 50 mg/kg body weight, and placed on a isothermal pad to maintain body temperature. The level of anesthesia was monitored every 15 minutes by neuro-response to a tail pinch, respiration and core temperature. The desired depth of surgical anesthesia was maintained by administering subsequent doses (5 mg/kg) intravenously. The left femoral artery was catheterized using standard procedures for blood pressure monitoring and blood sampling, with polyethylene tubing (PE50). The left femoral vein was catheterized with PE50 tubing for delivery of anethestic.
The exteriorized shunts were assembled by connecting two pieces of saline filled 12.5 cm PE90 tubing with a 6 cm piece of PE160 tubing containing a 6 cm piece of silk suture size 3 and clamped with hemostats. A small 0.5 cm portion of the silk thread protrudes from the junction of the chamber with the shunt. The left jugular vein and right carotid artery were catheterized with the ends of the PE90 shunt. The shunt was unclamped and blood allowed to flow from the carotid artery, through the chamber, and exit the shunt via the jugular vein. After 15 minutes, both sides of the chamber were clamped and the suture containing the clot removed following detachment of the arterial end of the chamber. The clot was immediately weighed and recorded. This procedure takes place at predetermined intervals (60, 90, 120, and 150 minutes after oral dosing) to allow assessment of efficacy over a large window in time. Four shunts were placed with flow initiated at 45, 75, 105, and 135 minutes after oral compound administration. Clot weight from the four shunts was the primary endpoint of the protocol. Blood pressure, heart rate core temperature and respiration were monitored continuously. Following termination of the experiment the animals were euthanized with a 120 mg/kg dose of Nembutal. One experiment was performed per animal.
ED50 values were calculated at 60, 90, 120, and 150 minutes after oral dosing of test compound. ED50 is that dose that reduced the clot size by 50%. […]

[3] = biological target: T2, human aPC (Homo sapiens, UniProt P04070); experiment: biochemical; conditions: 30 minute incubation; 1.0 nM enzyme; read-out: IC50 aPC (Table 2)
T2 construct: purchased Hematologic Technologies, Inc
Method: as §1
Following a 30 minute incubation at ambient temperature, 50 microliters of the substrate at the concentrations specified below were added to the wells, yielding a final total volume of 200 microliters.
Activated Protein C (aPC) Assay
aPC catalytic activity was determined using the chromogenic substrate, Pefachrome PC (delta-carbobenzloxy-D-lysine-L-prolyl-L-arginine-p-nitroaniline dihydrochloride), obtained from Pentapharm Ltd.). […] Purified human aPC was obtained from Hematologic Technologies, Inc. The enzyme was diluted into HBSA prior to assay in which the final concentration was 1.0 nM.

T1 sequence (P00750 36-562): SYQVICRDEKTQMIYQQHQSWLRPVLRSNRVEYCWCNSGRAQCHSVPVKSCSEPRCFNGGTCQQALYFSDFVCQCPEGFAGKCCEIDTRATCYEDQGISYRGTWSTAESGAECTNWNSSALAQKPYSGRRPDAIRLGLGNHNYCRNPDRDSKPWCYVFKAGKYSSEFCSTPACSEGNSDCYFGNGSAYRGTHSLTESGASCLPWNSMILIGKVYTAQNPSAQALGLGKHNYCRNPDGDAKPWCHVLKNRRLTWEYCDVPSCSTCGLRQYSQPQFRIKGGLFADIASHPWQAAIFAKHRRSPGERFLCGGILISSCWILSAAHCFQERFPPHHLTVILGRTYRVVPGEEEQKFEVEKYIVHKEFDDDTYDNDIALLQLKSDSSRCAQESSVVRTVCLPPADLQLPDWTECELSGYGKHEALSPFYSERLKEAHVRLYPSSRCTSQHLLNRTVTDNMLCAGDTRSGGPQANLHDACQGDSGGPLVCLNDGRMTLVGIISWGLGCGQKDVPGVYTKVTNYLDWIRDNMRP
T2 sequence (P04070 43-197): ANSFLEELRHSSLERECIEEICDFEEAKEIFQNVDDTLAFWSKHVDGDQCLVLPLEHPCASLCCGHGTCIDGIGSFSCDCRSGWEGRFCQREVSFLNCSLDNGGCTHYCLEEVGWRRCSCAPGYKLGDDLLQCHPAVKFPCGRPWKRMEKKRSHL
T2 sequence (P04070 212-461): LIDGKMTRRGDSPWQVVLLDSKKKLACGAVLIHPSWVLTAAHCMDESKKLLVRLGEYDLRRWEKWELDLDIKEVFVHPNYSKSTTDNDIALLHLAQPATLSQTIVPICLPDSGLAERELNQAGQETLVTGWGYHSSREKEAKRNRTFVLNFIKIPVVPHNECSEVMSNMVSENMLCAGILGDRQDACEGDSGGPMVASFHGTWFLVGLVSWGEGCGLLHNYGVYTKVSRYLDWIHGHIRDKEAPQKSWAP

In the case of N=C(N)NCCC[C@@H](C=O)NC(=O)Cn1cccc(NS(=O)(=O)Cc2ccccc2)c1=O [Example 10, [3-[(benzylsulfonyl)amino]-2-oxo-1,2-dihydropyridyl]acetyl-L-argininal, trifluoroacetate salt], the IC50 [1] is reported as > 2.5 µM, the ED50 ([2]; 1 h, 60 min after oral dose) is reported as < 1 mg/kg and the ED50 ([2]; 1.5 h, 90 min after oral dose) is reported as 2.9 mg/kg. The ED50 ([2]; 2 h, 120 min after oral dose) was 2.9 mg/kg, the ED50 ([2]; 150 min after oral dose) was 8.2 mg/kg and the IC50 [3] was > 2.5 µM.
